Test results from patent publication US20260262643A1, “HERBICIDAL BENZOXAZINES” (FMC CORPORATION, priority 2022, published 2026).

Legend:
blackgrass [1] = assay: Test A preemergence; format: in vivo, Alopecurus myosuroides
Method in brief: (§1)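 Greenhouse pot test, 10 days. Compound (non-phytotoxic solvent, surfactant) sprayed on soil at seeding or on seedlings at one- to two-leaf stage. Visual injury rated 0–100 against untreated plants.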

corn [2] = assay: Test A preemergence; format: in vivo, Zea mays
Method in brief: as §1

foxtail, giant [3] = assay: Test A preemergence; format: in vivo, Setaria faberi
Method in brief: as §1

goosegrass [4] = assay: Test A preemergence; format: in vivo, Eleusine indica
Method in brief: as §1

kochia [5] = assay: Test A preemergence; format: in vivo, Bassia scoparia
Method in brief: as §1

oat, wild [6] = assay: Test A preemergence; format: in vivo, Avena fatua
Method in brief: as §1

pigweed, palmer [7] = assay: Test A preemergence; format: in vivo, Amaranthus palmeri
Method in brief: as §1

ragweed [8] = assay: Test A preemergence; format: in vivo, Ambrosia artemisiifolia
Method in brief: as §1

ryegrass, Italian [9] = assay: Test A preemergence; format: in vivo, Lolium multiflorum
Method in brief: as §1

soybean [10] = assay: Test A preemergence; format: in vivo, Glycine max
Method in brief: as §1

wheat [11] = assay: Test A preemergence; format: in vivo, Triticum aestivum
Method in brief: as §1

blackgrass [12] = assay: Test A postemergence; format: in vivo, Alopecurus myosuroides
Method in brief: as §1

corn [13] = assay: Test A postemergence; format: in vivo, Zea mays; details: postemergence, 10 days; for Plant response rating, Corn: visual injury, 0 to 100 scale (0 no effect, 100 complete control)
Method in brief: as §1

foxtail, giant [14] = assay: Test A postemergence; format: in vivo, Setaria faberi; details: postemergence, 10 days; for Plant response rating, Foxtail, Giant: visual injury, 0 to 100 scale (0 no effect, 100 complete control)
Method in brief: as §1

goosegrass [15] = assay: Test A postemergence; format: in vivo, Eleusine indica; details: postemergence, 10 days; for Plant response rating, Goosegrass: visual injury, 0 to 100 scale (0 no effect, 100 complete control)
Method in brief: as §1

kochia [16] = assay: Test A postemergence; format: in vivo, Bassia scoparia; details: postemergence, 10 days; for Plant response rating, Kochia: visual injury, 0 to 100 scale (0 no effect, 100 complete control)
Method in brief: as §1

oat, wild [17] = assay: Test A postemergence; format: in vivo, Avena fatua; details: postemergence, 10 days; for Plant response rating, Oat, Wild: 500 g ai/ha, visual injury, 0 to 100 scale (0 no effect, 100 complete control)
Method in brief: as §1

pigweed, palmer [18] = assay: Test A postemergence; format: in vivo, Amaranthus palmeri; details: postemergence, 10 days; for Plant response rating, Pigweed, Palmer: 500 g ai/ha, visual injury, 0 to 100 scale (0 no effect, 100 complete control)
Method in brief: as §1

ragweed [19] = assay: Test A postemergence; format: in vivo, Ambrosia artemisiifolia; details: postemergence, 10 days; for Plant response rating, Ragweed: 500 g ai/ha, visual injury, 0 to 100 scale (0 no effect, 100 complete control)
Method in brief: as §1

ryegrass, Italian [20] = assay: Test A postemergence; format: in vivo, Lolium multiflorum; details: postemergence, 10 days; for Plant response rating, Ryegrass, Italian: 500 g ai/ha, visual injury, 0 to 100 scale (0 no effect, 100 complete control)
Method in brief: as §1

soybean [21] = assay: Test A postemergence; format: in vivo, Glycine max; details: postemergence, 10 days; for Plant response rating, Soybean: 500 g ai/ha, visual injury, 0 to 100 scale (0 no effect, 100 complete control)
Method in brief: as §1

wheat [22] = assay: Test A postemergence; format: in vivo, Triticum aestivum; details: postemergence, 10 days; for Plant response rating, Wheat: 500 g ai/ha, visual injury, 0 to 100 scale (0 no effect, 100 complete control)
Method in brief: as §1

galium = assay: Test A postemergence; format: in vivo, Galium aparine; details: postemergence, 10 days; for Plant response rating, Galium: visual injury, 0 to 100 scale (0 no effect, 100 complete control)
Method in brief: as §1

horseweed = assay: Test A postemergence; format: in vivo, Erigeron canadensis; details: postemergence, 10 days; for Plant response rating, Horseweed: visual injury, 0 to 100 scale (0 no effect, 100 complete control)
Method in brief: as §1

barnyardgrass = assay: Test B flooded paddy test; format: in vivo, Echinochloa crus-galli; details: 250 g ai/ha, Flood, 13 days, 0 to 100 scale (0 no effect, 100 complete control)
Method in brief: (§2)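 Percent weed or crop control, judged by eye on a 0–100 scale 13 days post-treatment, reflects compound added to a 3 cm flood maintained over 2-leaf plants in the greenhouse. Missing entries are marked with a dash.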

ducksalad = assay: Test B flooded paddy test; format: in vivo, Heteranthera limosa; details: 250 g ai/ha, Flood, 13 days, 0 to 100 scale (0 no effect, 100 complete control)
Method in brief: as §2

rice = assay: Test B flooded paddy test; format: in vivo, Oryza sativa; details: 250 g ai/ha, Flood, 13 days, 0 to 100 scale (0 no effect, 100 complete control)
Method in brief: as §2

sedge, umbrella = assay: Test B flooded paddy test; format: in vivo, Cyperus difformis; details: 250 g ai/ha, Flood, 13 days, 0 to 100 scale (0 no effect, 100 complete control)
Method in brief: as §2

[23] = 125 g ai/ha, visual injury after 10 days, 0 to 100 scale, 0 is no effect, 100 is complete control
[24] = 500 g ai/ha, 0 to 100 scale (0 no effect, 100 complete control), 10 days
[25] = 125 g ai/ha, 0 to 100 scale, 0 no effect, 100 complete control

CC(C)Oc1ccc(-n2cnc(C(C)C)n2)cc1C(=O)N1C[C@H](C)Oc2c(Cl)cccc21 [Compound 108]
80: Plant response rating, Kochia (kochia [5]; [24]) | Plant response rating, Ryegrass, Italian (ryegrass, Italian [9]; [23]) | Goosegrass plant response rating (goosegrass [15]; [25]) | Galium plant response rating (galium; [25]) | Plant response rating, Sedge, Umbrella (sedge, umbrella)
20: Oat, Wild plant response rating (oat, wild [17]; [25]) | Ryegrass, Italian plant response rating (ryegrass, Italian [20]; [25]) | Plant response rating, Horseweed (horseweed; 500 g ai/ha) | Plant response rating, Ducksalad (ducksalad)
40: Plant response rating, Blackgrass (blackgrass [1]; [24]) | Plant response rating, Wheat (wheat [11]; [24]) | Corn plant response rating (corn [13]; [25]) | Plant response rating, Ryegrass, Italian (ryegrass, Italian [20])
90: Plant response rating, Foxtail, Giant (foxtail, giant [3]; [23]) | Plant response rating, Ragweed (ragweed [8]; [24]) | Plant response rating, Foxtail, Giant (foxtail, giant [14]; 500 g ai/ha) | Plant response rating, Goosegrass (goosegrass [15]; 500 g ai/ha) | Plant response rating, Kochia (kochia [16]; 500 g ai/ha) | Plant response rating, Galium (galium; 500 g ai/ha)
0: Plant response rating, Blackgrass (blackgrass [1]; [23]) | Plant response rating, Corn (corn [2]; [23]) | Plant response rating, Kochia (kochia [5]; [23])
70: Foxtail, Giant plant response rating (foxtail, giant [14]; [25]) | Kochia plant response rating (kochia [16]; [25]) | Plant response rating, Oat, Wild (oat, wild [17]) | Pigweed, Palmer plant response rating (pigweed, palmer [18]; [25]) | Plant response rating, Pigweed, Palmer (pigweed, palmer [18])
10: Wheat plant response rating (wheat [22]; [25]) | Horseweed plant response rating (horseweed; [25]) | Plant response rating, Rice (rice)
60: Plant response rating, Corn (corn [13]; 500 g ai/ha) | Ragweed plant response rating (ragweed [19]; [25]) | Plant response rating, Ragweed (ragweed [19])
30: Plant response rating, Corn (corn [2]; [24]) | Plant response rating, Oat, Wild (oat, wild [6]; [23]) | Plant response rating, Oat, Wild (oat, wild [6]; [24]) | Plant response rating, Ragweed (ragweed [8]; [23]) | Plant response rating, Wheat (wheat [11]; [23]) | Blackgrass plant response rating (blackgrass [12]; 125 g ai/ha, postemergence, 10 days, 0 to 100 scale, 0 no effect, 100 complete control) | Plant response rating, Blackgrass (blackgrass [12]; 500 g ai/ha, postemergence, 10 days, visual injury, 0 to 100 scale (0 no effect, 100 complete control)) | Plant response rating, Wheat (wheat [22])
50: Plant response rating, Soybean (soybean [10]; [23])
55: Plant response rating, Barnyardgrass (barnyardgrass)
100: Plant response rating, Foxtail, Giant (foxtail, giant [3]; [24]) | Plant response rating, Goosegrass (goosegrass [4]; [23]) | Plant response rating, Goosegrass (goosegrass [4]; [24]) | Plant response rating, Pigweed, Palmer (pigweed, palmer [7]; [23]) | Plant response rating, Pigweed, Palmer (pigweed, palmer [7]; [24]) | Plant response rating, Ryegrass, Italian (ryegrass, Italian [9]; [24]) | Plant response rating, Soybean (soybean [10]; [24]) | Soybean plant response rating (soybean [21]; [25]) | Plant response rating, Soybean (soybean [21])

Cc1cccc2c1O[C@@H](C)CN2C(=O)c1cccc(-n2cnc(Cl)n2)c1 [Compound 69]
60: Plant response rating, Kochia (kochia [5]; [23]) | Plant response rating, Blackgrass (blackgrass [12]; 500 g ai/ha, Postemergence, 0 to 100 scale) | Plant response rating, Kochia (kochia [16]; 500 g ai/ha) | Plant response rating, Galium (galium; 125 g ai/ha)
90: Plant response rating, Blackgrass (blackgrass [1]; [24]) | Plant response rating, Foxtail, Giant (foxtail, giant [3]; [23]) | Plant response rating, Foxtail, Giant (foxtail, giant [3]; [24]) | Plant response rating, Goosegrass (goosegrass [4]; [23]) | Plant response rating, Pigweed, Palmer (pigweed, palmer [7]; [24])
70: Plant response rating, Kochia (kochia [5]; [24]) | Plant response rating, Oat, Wild (oat, wild [6]; [24]) | Plant response rating, Ryegrass, Italian (ryegrass, Italian [20])
10: Plant response rating, Wheat (wheat [11]; [23]) | Plant response rating, Corn (corn [13]; 125 g ai/ha) | Plant response rating, Wheat (wheat [22])
40: Plant response rating, Blackgrass (blackgrass [1]; [23]) | Plant response rating, Pigweed, Palmer (pigweed, palmer [18])
80: Plant response rating, Ryegrass, Italian (ryegrass, Italian [9]; [23]) | Plant response rating, Ryegrass, Italian (ryegrass, Italian [9]; [24]) | Plant response rating, Foxtail, Giant (foxtail, giant [14]; 500 g ai/ha)
30: Plant response rating, Corn (corn [2]; [23]) | Plant response rating, Corn (corn [2]; [24]) | Plant response rating, Corn (corn [13]; 500 g ai/ha) | Plant response rating, Oat, Wild (oat, wild [17]) | Plant response rating, Ragweed (ragweed [19])
0: Plant response rating, Ragweed (ragweed [8]; [23]) | Plant response rating, Ragweed (ragweed [8]; [24]) | Plant response rating, Soybean (soybean [10]; [23]) | Plant response rating, Soybean (soybean [10]; [24]) | Plant response rating, Blackgrass (blackgrass [12]; 125 g ai/ha, postemergence, 10 days, visual injury, 0 to 100 scale (0 no effect, 100 complete control)) | Plant response rating, Goosegrass (goosegrass [15]; 125 g ai/ha) | Plant response rating, Horseweed (horseweed; 125 g ai/ha) | Plant response rating, Horseweed (horseweed; 500 g ai/ha) | Plant response rating, Barnyardgrass (barnyardgrass) | Plant response rating, Ducksalad (ducksalad) | Plant response rating, Rice (rice) | Plant response rating, Sedge, Umbrella (sedge, umbrella)
20: Plant response rating, Oat, Wild (oat, wild [6]; [23]) | Plant response rating, Pigweed, Palmer (pigweed, palmer [7]; [23]) | Plant response rating, Wheat (wheat [11]; [24]) | Plant response rating, Foxtail, Giant (foxtail, giant [14]; 125 g ai/ha) | Plant response rating, Goosegrass (goosegrass [15]; 500 g ai/ha) | Plant response rating, Kochia (kochia [16]; 125 g ai/ha)
100: Plant response rating, Goosegrass (goosegrass [4]; [24]) | Plant response rating, Soybean (soybean [21]) | Plant response rating, Galium (galium; 500 g ai/ha)
